The structures appear in SMILES notation. Bounds are passed on as bounds.

Consider `COc1cc(CCN2CCN(c3nsc4ccccc34)CC2)c(NC(=O)Nc2ccccc2C)cc1OC`, for which the melting point worked out at 200 °C. Consider `N#Cc1ccccc1C(F)(F)C(F)(F)c1ccccc1`, for which the melting point fell in the range of 84 to 86 °C. The same measure for `CC(=O)NC[C@H]1CN(c2ccc(N3CCC(O)CC3)cc2)C(=O)O1`: 64 to 66 °C; for `ClCc1nc2ccccc2c2ccnn12`: 135 to 136 °C. The compound `C=C1C(O)C2(O)OCC34C(CC5C(C)=CC(=O)C(O)C5(C)C23)OC(=O)CC14` (centres undefined) displayed a melting point of 235 to 237 °C.

As to `COc1ccc2c(c1OC)CN(c1nc(N)c3cc(OC)c(OC)c(OC)c3n1)CC2`, the melting point turned out to be 190 °C. With `Nc1ccc(Cl)c(C2SCCS2)c1` the figure was 60 to 63 °C; with `ClCc1nc(Cl)c2sccc2n1`, 101 to 102 °C.

Turning to `C[C@@H]1CO[C@]2(CC[C@@H](OCc3ccccc3)C2)N1C(=O)c1ccccc1`, the melting point was in the range of 85 to 86 °C. The same measure for `CC(=O)Oc1c(C)cc(OCC(=O)c2ccc(C(C)C)cc2)c2ccccc12`: 105 to 106 °C; for `CC(C)CCc1ccc(C=CC(O)=S)cc1`: 132 to 133 °C; for `O=S1NC(Cc2csc3ccccc23)=NO1` (centres undefined): 134 to 136 °C.

The compound `COc1ccc(CSc2cc(C(=O)Nc3ccc(C#N)cc3)ccn2)cc1` gave a melting point of 201 to 203 °C. The same measure for `CC(C)(O)CC(=O)c1cc(C(C)(C)C)c(O)c(C(C)(C)C)c1`: 113 to 114 °C; for `Cc1cc([N+](=O)[O-])c(NC(C)C)c([N+](=O)[O-])c1C`: 69 to 70 °C. With `COc1ccc(S(=O)(=O)Nc2ccccc2C(F)(F)F)cc1` the figure was 92 to 93 °C. `CCc1cc(CC)n2nccc2n1` returned a melting point of 43 to 44 °C. Turning to `O=C(O)Cn1c(-c2ccc([N+](=O)[O-])cc2)nc2cccnc21`, the melting point is 249 to 251 °C. With `Fc1ccc(C(c2ccccc2)(c2ccccc2)n2ccnc2)cc1` the figure was 146 °C; with `COC(=O)[C@H](NC(=O)OC(C)(C)C)c1ccc(O)cc1`, 140 to 142 °C; with `NC(=O)C1CCc2[nH]c3ccc(Cl)cc3c2C1` (centres undefined), 247 to 248 °C. As to `CC(C)CC(=O)Nc1cccc(-c2ccnc3c(-c4cccc(CN5CCOCC5)c4)cnn23)c1`, the melting point was 170 to 173 °C.

For `CN1C(=O)C2(CCN(CCCC(O)c3ccc(F)cc3)CC2)c2ccccc21` (centres undefined), the melting point lay within 126 to 128 °C. As for `COC(=O)CCn1c(C)c(Cc2cccnc2)c2c(CCC(=O)O)cccc21`, the melting point lay within 165 to 167 °C.

`CN1C(=O)C2(COc3cc4c(cc32)OCCO4)c2c(C(=O)O)cccc21` (centres undefined) yielded a melting point of 297 to 299 °C.

Consider `CCCCCCc1nc2c(N)nc3ccccc3c2n1CCCCNS(C)(=O)=O`, for which the melting point was 170 to 171 °C. With `O=C(NC(CO)CNS(=O)(=O)c1ccc(Oc2ccccc2)cc1)OCc1ccccc1` (centres undefined), the melting point was in the range of 86 to 89 °C. For `C/C(=C\C=C\C#N)c1ccc(OCc2nc(-c3ccccc3)oc2C)cc1`, the melting point fell in the range of 134 to 136 °C.

`O=C(NCc1ccc(Cl)cc1)c1cnc2c(F)cc(C#CCCO)cc2c1O` had a melting point of 253 to 255 °C. With `CCCCCCCCCCCCCCCCCNC(=O)OCCOCCOC(=O)N(Cc1ccccn1)C(C)=O` the figure was 60 to 61 °C; with `CNC(=O)Cc1ccccc1O`, 105 to 106 °C; with `CC(=O)N1CCC2(CC1)Cc1cc([N+](=O)[O-])ccc1O2`, 149 to 150 °C. With `Cc1ccc(N(C)S(=O)(=O)c2cccs2)c2[nH]c(C(N)=O)cc12` the figure was 221 to 222 °C; with `CSc1sc(NC(=O)OC(C)(C)C)c(NC(=O)OC(C)(C)C)c1C#N`, 156 to 157 °C. With `CS(=O)c1ccc(COc2cccc(C(=O)Nc3ccc(C#N)cc3)c2)cc1` (centres undefined), the melting point fell in the range of 174 to 175 °C.

The compound `COC(=O)CCCc1cc2nc(Cl)ccc2n1S(=O)(=O)c1ccccc1F` registered a melting point of 83 °C.

On to `CCOC(=O)CSCc1cc(-c2nn(C)c(C(F)(F)F)c2Cl)c(F)cc1Cl`, for which the melting point was found to be 63 °C. As for `Cc1cc(C)c(Nc2nc(C)ncc2S(=O)(=O)c2ccc(-n3ccnc3)cc2)c(C)c1`, the melting point lay in the range of 230 to 232 °C. The same measure for `Nc1cccc(-c2ccc3nnn(Cc4ccc5ncccc5c4)c3n2)c1`: 187 to 189 °C; for `COC(=O)c1ccc(NN=CC(=O)OCCC#N)cc1S(N)(=O)=O`: 188 to 189 °C. The same measure for `CCOC(Cc1ccc(OCCN2CCSc3ccccc32)cc1)C(=O)O` (single isomer, unassigned; (-)): 110 °C; for `CN1CCN(c2cc(Cl)cc3c2c(=O)n(-c2ccccc2)c(=O)n3Cc2ccccc2)CC1`: 111 to 119 °C. The same measure for `CC(=O)Nc1cc(N(C)C)ccc1C1(c2ccc(N(C)C)cc2N(C)C)OC(=O)c2ccccc21` (centres undefined): 97 to 136 °C; for `CCOC(=O)C1=C(COCC(C)(O)Cn2cncn2)NC(C)=C(C(=O)OC)C1c1cccc(Cl)c1Cl` (centres undefined): 149 to 160 °C; for `COc1cc2c(cc1OC)CC(=O)N(CC1CCCNC1)CC2` (centres undefined): 152 to 156 °C. Take `COc1ccc(C(CC(=O)O)N2C(=O)c3cccc([N+](=O)[O-])c3C2=O)cc1` (centres undefined): the melting point lay in the range of 178 to 180 °C. Take `O=C(NCCN1CCN(C(c2ccccc2)c2ccncc2)CC1)C1CSC(c2cccnc2)N1` (centres undefined): the melting point lay in the range of 160 to 162 °C. The same measure for `CCN(C)CCc1[nH]c2ccccc2c1CSc1ccccc1`: 77 to 79 °C. The same measure for `Cc1cc2c(cc1C)=NC(=O)N=2`: > 360 °C. Consider `CCCC(=O)N(Cc1ccc(Cl)cc1Cl)c1c(NC(C)(C)CC)c(=O)c1=O`, for which the melting point fell in the range of 112 to 117 °C. With `CCCN(Cc1cccc(-c2noc(C)n2)c1)C(=O)Nc1ccc(Br)cc1` the figure was 113 to 114 °C; with `CCc1cccc(C)c1S(=O)(=O)c1nn(C(=O)N(CC)CC)cc1OC`, 102 to 104 °C. With `Cc1ccccc1-c1ccc(C(=O)N2Cc3ccc(C(=O)NC(C)c4ccccc4)n3Cc3ccccc32)cc1C` (centres undefined) the figure was 118 to 124 °C; with `Cc1cc(=O)c(OCC(=O)O)cn1C`, 240 to 242 °C.

Compound `CCc1cnc2c(NC(=O)c3c(Cl)cccc3Cl)cccc2c1CCO` gave a melting point of 180 to 182 °C. As for `COc1ccc(-n2nc(CCC(=O)NCC(=O)O)cc2-c2ccc(Cl)cc2)cc1`, the melting point was 186 to 188 °C. The same measure for `Cc1cc(I)ccc1NC1=CC2=NCN(C)C2=CC1(F)C(=O)NN` (centres undefined): 232 to 234 °C; for `N#Cc1ccc(-c2cccc(-c3nc4ccc(C#N)cc4[nH]3)n2)cc1`: 311 to 312 °C; for `CC(=O)CN1CCc2c(c(=O)oc3cc4c(cc23)OCO4)C1`: 167 to 170 °C. The same measure for `O=c1[nH]c(=O)n(Cc2cccc(OCc3noc(-c4ccc(C(F)(F)F)cc4)n3)c2)o1`: 90 to 91 °C; for `Cc1nn(-c2c(Cl)cc(C(F)(F)F)cc2Cl)nc1S`: 86 to 89 °C; for `Fc1cccc(F)c1-c1cccnc1`: 194 to 196 °C.

In turn, `CCOC(=O)c1c(O)c2cc(Br)ccc2c(=O)n1CC1CC1` came in with a melting point of 64 to 65 °C. `Cn1cc(CC(=O)O)c2cc(Br)ccc21` returned a melting point of 192 to 194 °C.

On to `COc1cc(C=CC=NO)ccc1OC(C)=O`, for which the melting point fell in the range of 72 to 74 °C. With `CCC1CCC2(C)C(=CCC3C4CCC(=O)C4(C)CCC32)C1` (centres undefined) the figure was 73 to 75 °C; with `CC(C)N(CCC(CCN(C)C)(C(N)=O)c1ccccc1)C(C)C` (centres undefined), 75 to 78 °C; with `Brc1ccn2nc(N3CCCC3)nc2c1`, 170 to 172 °C.

With `N#CN=C(Nc1cccnc1)NC(NC(=O)c1ccc(Cl)cc1)C1CCCCC1` (centres undefined), the melting point fell in the range of 190 to 192 °C. Take `COc1cc([N+](=O)[O-])c(NCCO)c([N+](=O)[O-])c1`: the melting point is 104 °C. With `Cc1ccc(N2N=C3c4cc(OCCCN(C)C)ccc4CCC3CC2=O)cc1` (centres undefined) the figure was 159 to 162 °C. With `O=C1Oc2ccccc2C1c1ccccc1` (centres undefined) the figure was 109 to 111 °C; with `N#CC1=Nc2ccc(Cl)cc2Oc2ccccc21`, 185 to 188 °C; with `CC(C)(C)C(O)(Cn1cncn1)C(Cl)=CCl` (centres undefined), 49 to 52 °C. With `CCOC(=O)c1ccc(-c2cc(-c3ccc4c(c3)C(C)(C)CCC4(C)C)ccc2OS(=O)(=O)C(F)(F)F)cc1` the figure was 110 to 113 °C. Compound `COc1cc(O)ccc1/C=C/C(=O)CC(=O)CCc1ccc(O)cc1` registered a melting point of 131 to 135 °C. `CN(C)C=C(C#N)C(=O)Nc1ccccc1Br`: the melting point lay in the range of 140 to 141 °C. The same measure for `Cc1ccc(S(=O)(=O)N2CCCC2c2nnnn2[C@@](C)(Cc2ccc([N+](=O)[O-])cc2)C(=O)O)cc1` (some centres undefined): 150 to 160 °C; for `Cc1nnc(-c2ccc3occ(-c4ccc(S(=O)(=O)N(C)C)cc4)c3c2)o1`: 246 to 247 °C; for `COC(=O)C=C(c1ccccc1)c1ccc2nc(N)n(S(=O)(=O)C(C)C)c2c1`: 160 to 165 °C. The same measure for `CC(C)(C)OC(=O)N1CCN(C(=O)N2CC(=O)Nc3ccccc32)CC1`: 166 to 167 °C. With `O=C(O)COc1ccc(OC(F)(F)F)cc1C(=S)NCc1cccc([N+](=O)[O-])c1` the figure was 158 to 161 °C; with `O=C(O)/C=C1\CCc2c(F)cc(F)cc21`, 238 to 239 °C; with `O=[N+]([O-])c1ccc(SCc2c[nH]cn2)nc1`, 155 to 156 °C. In turn, `Cc1cc(OCCCN2CCC[C@H]2C)ccc1C1=NNC(=O)CC1` returned a melting point of 121 to 123 °C.

Compound `O=C(NC(C(=O)O)c1ccc[nH]1)OCC(Cl)(Cl)Cl` (centres undefined) came in with a melting point of 111 °C.

In turn, `N#Cc1ccccc1N1CCN(CNC(=O)c2ccccc2)CC1` displayed a melting point of 148 to 150 °C.

`N=C(Nc1ccccc1-c1ccccc1)N1CCCC(O)C1` (centres undefined) displayed a melting point of 144 to 145 °C.

The compound `ClCOc1ccc(-c2ccccc2)cc1` returned a melting point of 67 to 70 °C.

The record behind these values is a melting point compilation (Tetko et al.; mined from patent text by program, amines drawn as free bases though some values may be those of a salt).
